Measurements published in ChEMBL document CHEMBL1138846, “Synthesis of C2-C3'N-linked macrocyclic taxoids. Novel docetaxel analogues with high tubulin activity” (J Med Chem, 2004).
Activity calls are given as the source filed them. No cut-off for these calls is given here.

Columns and labels:
[1] = Concentration required to inhibit 50% of rate of microtubule disassembly; assay type: functional
[2] = Ratio of inhibitory concentration of compound against microtubule disassembly to that of inhibitory concentration of paclitaxel; Inactive; assay type: functional
[3] = system: KB; experiment: Concentration required for inhibition of 50% human […] KB cell line proliferation after 72 hr of incubation; assay type: functional, cell-based
[4] = Ratio of inhibitory concentration of compound against microtubule disassembly to that of inhibitory concentration of paclitaxel; assay type: functional
[5] = system: HCT-116; experiment: Concentration required for inhibition of 50% human colon HCT 116 cell line proliferation after 72 hr of incubation; assay type: functional, cell-based; conditions: HCT-116, 72 h
[6] = system: MCF7; experiment: Concentration required for inhibition of 50% human breast MCF 7 cell line proliferation after 72 hr of incubation; assay type: functional, cell-based; conditions: MCF7, 72 h

Structure (SMILES)	IC50 [1] [nM]	Ratio [2]	IC50 [3] [nM]	Ratio [4]	IC50 [5] [nM]	IC50 [6] [nM]
CC(=O)O[C@H]1C(=O)[C@@]2(C)[C@H]([C@H](OC(=O)c3ccccc3)[C@]3(O)C[C@H](OC(=O)[C@H](O)[C@@H](NC(=O)c4ccccc4)c4ccccc4)C(C)=C1C3(C)C)[C@]1(OC(C)=O)CO[C@@H]1C[C@@H]2O [PACLITAXEL]	1000					
C=CCCCCC(=O)N[C@@H](c1ccccc1)[C@@H](O)C(=O)O[C@H]1C[C@@]2(O)[C@@H](OC(=O)c3ccc(CC=C)cc3)C3[C@](C)(C(=O)[C@H](O)C(=C1C)C2(C)C)[C@@H](O)C[C@H]1OC[C@@]31OC(C)=O (stereo partly drawn)		inactive	40			
C=CCCCCC(=O)N[C@@H](c1ccccc1)[C@@H](O)C(=O)O[C@H]1C[C@@]2(O)[C@@H](OC(=O)c3cccc(CC=C)c3)C3[C@](C)(C(=O)[C@H](O)C(=C1C)C2(C)C)[C@@H](O)C[C@H]1OC[C@@]31OC(C)=O (stereo partly drawn)			10	1		
CC(=O)O[C@@]12CO[C@@H]1C[C@H](O)[C@@]1(C)C(=O)[C@H](O)C3=C(C)[C@@H](OC(=O)[C@H](O)[C@@H](NC(=O)OC(C)(C)C)c4ccccc4)C[C@@](O)([C@@H](OC(=O)c4ccccc4)[C@H]21)C3(C)C [DOCETAXEL]			0.3	0.5	2.2	1
CC(=O)O[C@@]12CO[C@@H]1C[C@H](O)[C@@]1(C)C(=O)[C@H](O)C3=C(C)[C@@H]4C[C@@](O)([C@@H](OC(=O)c5cccc(c5)C/C=C/CCCCC(=O)N[C@@H](c5ccccc5)[C@@H](O)C(=O)O4)C12)C3(C)C (stereo partly drawn)			70	1	700	350
C=CCCCCC(=O)N[C@@H](c1ccccc1)[C@@H](O)C(=O)O[C@H]1C[C@@]2(O)[C@@H](OC(=O)c3ccccc3CC=C)C3[C@](C)(C(=O)[C@H](O)C(=C1C)C2(C)C)[C@@H](O)C[C@H]1OC[C@@]31OC(C)=O (stereo partly drawn)			3.2	1.2	10	9
CC(=O)O[C@@]12CO[C@@H]1C[C@H](O)[C@@]1(C)C(=O)[C@H](O)C3=C(C)[C@@H]4C[C@@](O)([C@@H](OC(=O)CCCC/C=C\CCCCC(=O)N[C@@H](c5ccccc5)[C@@H](O)C(=O)O4)C12)C3(C)C (stereo partly drawn)			8000	7.3	> 10000	> 10000
CC(=O)O[C@@]12CO[C@@H]1C[C@H](O)[C@@]1(C)C(=O)[C@H](O)C3=C(C)[C@@H]4C[C@@](O)([C@@H](OC(=O)c5ccc(cc5)C/C=C\CCCCC(=O)N[C@@H](c5ccccc5)[C@@H](O)C(=O)O4)C12)C3(C)C (stereo partly drawn)		inactive	280			
CC(=O)O[C@@]12CO[C@@H]1C[C@H](O)[C@@]1(C)C(=O)[C@H](O)C3=C(C)[C@@H]4C[C@@](O)([C@@H](OC(=O)c5cccc(c5)C/C=C\CCCCC(=O)N[C@@H](c5ccccc5)[C@@H](O)C(=O)O4)C12)C3(C)C (stereo partly drawn)			200	1.4	8000	> 10000
CC(=O)O[C@@]12CO[C@@H]1C[C@H](O)[C@@]1(C)C(=O)[C@H](O)C3=C(C)[C@@H]4C[C@@](O)([C@@H](OC(=O)c5ccc(cc5)C/C=C/CCCC(=O)N[C@@H](c5ccccc5)[C@@H](O)C(=O)O4)C12)C3(C)C (stereo partly drawn)		inactive	1600			
CC(=O)O[C@@]12CO[C@@H]1C[C@H](O)[C@@]1(C)C(=O)[C@H](O)C3=C(C)[C@@H]4C[C@@](O)([C@@H](OC(=O)c5ccccc5C/C=C/CCCCC(=O)N[C@@H](c5ccccc5)[C@@H](O)C(=O)O4)C12)C3(C)C (stereo partly drawn)			700	6	2400	2100
